Tested on: 313798-341-R-J2-PDC spheroids, viability
Experiment: Anticancer human tumor 313798-341-R-J2-PDC patient-derived cervical squamous cell carcinoma cell line growth inhibition [PI3K]
Conditions: spheroids with HUVEC and MSC; for IC50: curve of first compound; for viability, T/C: stronger effect = lower value
In short: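 High-throughput combination screen: PI3K inhibitors crossed with targeted small molecules on complex spheroids of tumor cells, HUVEC and MSCs at 37 degrees C, 5% CO2. Top concentration was at or near clinical Cmax (otherwise 10 microM), with half-log decrements.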

[1] = second compound 0.00316 µM, first compound 0.0316 µM
[2] = second compound 0.00316 µM, first compound 0.1 µM
[3] = second compound 0.00316 µM, first compound 0.316 µM
[4] = second compound 0.00316 µM, first compound 1 µM
[5] = second compound 0.00316 µM, first compound 3.16 µM
[6] = second compound 0.00316 µM, first compound 10 µM
[7] = second compound 0.01 µM, first compound 0.0316 µM
[8] = second compound 0.01 µM, first compound 0.1 µM
[9] = second compound 0.01 µM, first compound 0.316 µM
[10] = second compound 0.01 µM, first compound 1 µM
[11] = second compound 0.01 µM, first compound 3.16 µM
[12] = second compound 0.01 µM, first compound 10 µM
[13] = second compound 0.0316 µM, first compound 0.0316 µM
[14] = second compound 0.0316 µM, first compound 0.1 µM
[15] = second compound 0.0316 µM, first compound 0.316 µM
[16] = second compound 0.0316 µM, first compound 1 µM
[17] = second compound 0.0316 µM, first compound 3.16 µM
[18] = second compound 0.0316 µM, first compound 10 µM
[19] = second compound 0.1 µM, first compound 0.0316 µM
[20] = second compound 0.1 µM, first compound 0.1 µM
[21] = second compound 0.1 µM, first compound 0.316 µM
[22] = second compound 0.1 µM, first compound 1 µM
[23] = second compound 0.1 µM, first compound 3.16 µM
[24] = second compound 0.1 µM, first compound 10 µM
[25] = second compound 0.316 µM, first compound 0.0316 µM
[26] = second compound 0.316 µM, first compound 0.1 µM
[27] = second compound 0.316 µM, first compound 0.316 µM
[28] = second compound 0.316 µM, first compound 1 µM
[29] = second compound 0.316 µM, first compound 3.16 µM
[30] = second compound 0.316 µM, first compound 10 µM
[31] = second compound 1 µM, first compound 0.0316 µM
[32] = second compound 1 µM, first compound 0.1 µM
[33] = second compound 1 µM, first compound 0.316 µM
[34] = second compound 1 µM, first compound 1 µM
[35] = second compound 1 µM, first compound 3.16 µM
[36] = second compound 1 µM, first compound 10 µM
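Further: spheroids exposed to compounds for seven days.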
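Wherever viability, T/C is given: 100% = DMSO vehicle control viability.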

For `CCCS(=O)(=O)Nc1ccc(F)c(C(=O)c2c[nH]c3ncc(-c4ccc(Cl)cc4)cc23)c1F` + CC(Nc1ccc2c(c1)OCCn1cc(N3C(=O)OCC3C(F)F)nc1-2)C(N)=O, the IC50 (second compound 0.00316 µM) was 6 µM, the IC50 (second compound 0.01 µM) was 6 µM and the IC50 (second compound 0.0316 µM) was 5.77 µM. The IC50 (second compound 0.1 µM) was 4.97 µM, the IC50 (second compound 0.316 µM) was 3.56 µM and the IC50 (second compound 1 µM) was 1.67 µM. For the same molecule, the viability, T/C [1] was 90.6%, the viability, T/C [2] was 98.7% and the viability, T/C [3] was 88.4%. It also gave a viability, T/C [4] of 114%, a viability, T/C [5] of 97.9% and a viability, T/C [6] of 11.9%. It also gave a viability, T/C [7] of 99.1%, a viability, T/C [8] of 95.8% and a viability, T/C [9] of 98.7%. The viability, T/C [10] was 106%, the viability, T/C [11] was 104% and the viability, T/C [12] was 9.37%. It also gave a viability, T/C [13] of 107%, a viability, T/C [14] of 97.8% and a viability, T/C [15] of 97.7%. It also gave a viability, T/C [16] of 97.7%, a viability, T/C [17] of 92.7% and a viability, T/C [18] of 10.9%. For the same molecule, the viability, T/C [19] was 104%, the viability, T/C [20] was 92.6% and the viability, T/C [21] was 84.9%. It also gave a viability, T/C [22] of 92.6%, a viability, T/C [23] of 76% and a viability, T/C [24] of 9.75%. For the same molecule, the viability, T/C [25] was 74.6%, the viability, T/C [26] was 82.1% and the viability, T/C [27] was 79.7%. It also gave a viability, T/C [28] of 73.6%, a viability, T/C [29] of 54.9% and a viability, T/C [30] of 8.5%. The viability, T/C [31] was 50.5%, the viability, T/C [32] was 59.1% and the viability, T/C [33] was 59.5%. The viability, T/C [34] was 58%, the viability, T/C [35] was 41.6% and the viability, T/C [36] was 8.44%.

`CC1(C)CCC(CN2CCN(c3ccc(C(=O)NS(=O)(=O)c4ccc(NCC5CCOCC5)c([N+](=O)[O-])c4)c(Oc4cnc5[nH]ccc5c4)c3)CC2)=C(c2ccc(Cl)cc2)C1` was tested, and the viability, T/C (compound 0.0316 µM) was 101% [middle of 4 runs], the viability, T/C (compound 0.1 µM) was 97.8% [middle of 4 runs] and the viability, T/C (compound 0.316 µM) was 101% [middle of 4 runs]. For the same molecule, the viability, T/C (compound 1 µM) was 94.4% [middle of 4 runs] and the viability, T/C (compound 3.16 µM) was 78.9% [middle of 4 runs].

Work on `Cn1ncnc1[C@H]1c2n[nH]c(=O)c3cc(F)cc(c23)N[C@@H]1c1ccc(F)cc1` + CC(Nc1ncnc2nc[nH]c12)c1cc2cccc(Cl)c2c(=O)n1-c1ccccc1 yielded an IC50 (second compound 0.0316 µM) greater than 0.1 µM, an IC50 (second compound 0.1 µM) greater than 0.1 µM and an IC50 (second compound 0.316 µM) greater than 0.1 µM. It also gave an IC50 (second compound 1 µM) greater than 0.1 µM, an IC50 (second compound 3.16 µM) greater than 0.1 µM and an IC50 (second compound 10 µM) greater than 0.1 µM. It also gave a viability, T/C (second compound 0.0316 µM, first compound 0.000316 µM) of 110%, a viability, T/C (second compound 0.0316 µM, first compound 0.001 µM) of 94.2% and a viability, T/C (second compound 0.0316 µM, first compound 0.00316 µM) of 89.2%. For the same molecule, the viability, T/C (second compound 0.0316 µM, first compound 0.01 µM) was 109%, the viability, T/C [13] was 89.5% and the viability, T/C [14] was 77.1%. It also gave a viability, T/C (second compound 0.1 µM, first compound 0.000316 µM) of 94.7%, a viability, T/C (second compound 0.1 µM, first compound 0.001 µM) of 101% and a viability, T/C (second compound 0.1 µM, first compound 0.00316 µM) of 91.8%. For the same molecule, the viability, T/C (second compound 0.1 µM, first compound 0.01 µM) was 96.7%, the viability, T/C [19] was 97.4% and the viability, T/C [20] was 84%. For the same molecule, the viability, T/C (second compound 0.316 µM, first compound 0.000316 µM) was 92.6%, the viability, T/C (second compound 0.316 µM, first compound 0.001 µM) was 103% and the viability, T/C (second compound 0.316 µM, first compound 0.00316 µM) was 102%. For the same molecule, the viability, T/C (second compound 0.316 µM, first compound 0.01 µM) was 105%, the viability, T/C [25] was 85.8% and the viability, T/C [26] was 85.2%. For the same molecule, the viability, T/C (second compound 1 µM, first compound 0.000316 µM) was 102%, the viability, T/C (second compound 1 µM, first compound 0.001 µM) was 102% and the viability, T/C (second compound 1 µM, first compound 0.00316 µM) was 103%. The viability, T/C (second compound 1 µM, first compound 0.01 µM) was 95.5%, the viability, T/C [31] was 90.9% and the viability, T/C [32] was 86.2%. The viability, T/C (second compound 3.16 µM, first compound 0.000316 µM) was 92.9%, the viability, T/C (second compound 3.16 µM, first compound 0.001 µM) was 91.1% and the viability, T/C (second compound 3.16 µM, first compound 0.00316 µM) was 87.7%. For the same molecule, the viability, T/C (second compound 3.16 µM, first compound 0.01 µM) was 95.5%, the viability, T/C (second compound 3.16 µM, first compound 0.0316 µM) was 84.1% and the viability, T/C (second compound 3.16 µM, first compound 0.1 µM) was 79.9%. It also gave a viability, T/C (second compound 10 µM, first compound 0.000316 µM) of 88.1%, a viability, T/C (second compound 10 µM, first compound 0.001 µM) of 80.8% and a viability, T/C (second compound 10 µM, first compound 0.00316 µM) of 73.8%. The viability, T/C (second compound 10 µM, first compound 0.01 µM) was 78.6%, the viability, T/C (second compound 10 µM, first compound 0.0316 µM) was 74.3% and the viability, T/C (second compound 10 µM, first compound 0.1 µM) was 61.5%.

For `CNC(=O)c1ccc(N2C(=S)N(c3ccc(C#N)c(C(F)(F)F)c3)C(=O)C2(C)C)cc1F` + CC(Nc1ccc2c(c1)OCCn1cc(N3C(=O)OCC3C(F)F)nc1-2)C(N)=O, the IC50 (second compound 0.00316 µM) was greater than 10 µM, the IC50 (second compound 0.01 µM) was greater than 10 µM and the IC50 (second compound 0.0316 µM) was greater than 10 µM. The IC50 (second compound 0.1 µM) was greater than 10 µM, the IC50 (second compound 0.316 µM) was greater than 10 µM and the IC50 (second compound 1 µM) was 3.72 µM. The viability, T/C [1] was 99.8%, the viability, T/C [2] was 87% and the viability, T/C [3] was 89.7%. For the same molecule, the viability, T/C [4] was 101%, the viability, T/C [5] was 99.3% and the viability, T/C [6] was 88.2%. The viability, T/C [7] was 103%, the viability, T/C [8] was 94.8% and the viability, T/C [9] was 97.6%. The viability, T/C [10] was 91.3%, the viability, T/C [11] was 101% and the viability, T/C [12] was 90%. It also gave a viability, T/C [13] of 93.3%, a viability, T/C [14] of 101% and a viability, T/C [15] of 102%. It also gave a viability, T/C [16] of 92.8%, a viability, T/C [17] of 97.5% and a viability, T/C [18] of 90.1%. It also gave a viability, T/C [19] of 97.7%, a viability, T/C [20] of 92% and a viability, T/C [21] of 91.9%. For the same molecule, the viability, T/C [22] was 91.7%, the viability, T/C [23] was 87.5% and the viability, T/C [24] was 77.6%. For the same molecule, the viability, T/C [25] was 82.7%, the viability, T/C [26] was 75.8% and the viability, T/C [27] was 79.7%. The viability, T/C [28] was 70.2%, the viability, T/C [29] was 62.2% and the viability, T/C [30] was 60.2%. It also gave a viability, T/C [31] of 50.2%, a viability, T/C [32] of 59.6% and a viability, T/C [33] of 53%. For the same molecule, the viability, T/C [34] was 51.1%, the viability, T/C [35] was 51.8% and the viability, T/C [36] was 44.7%.
